Source: ChEMBL document CHEMBL1136880, “Discovery of N-aryl-9-oxo-9H-fluorene-1-carboxamides as a new series of apoptosis inducers using a cell- and caspase-based high-throughput screening assay. 1. Structure-activity relationships of the carboxamide group” (Bioorg Med Chem Lett, 2009)
In brackets after ≈: the same amount, converted by molar mass. Activity calls are given as the source filed them. No cut-off for these calls is given here.

Key:
[1] = test system: HCT-116; assay: Induction of apoptosis in human HCT116 cells after 48 hrs; type: functional, cell-based; conditions: HCT-116, 48 h
[2] = test system: SNU-398; assay: Induction of apoptosis in human SNU398 cells after 48 hrs; type: functional, cell-based; conditions: SNU-398, 48 h
[3] = test system: T47D; assay: Induction of apoptosis in human T47D cells after 48 hrs; type: functional, cell-based
[4] = Inhibition of tubulin polymerization by DAPI staining method
[5] = test system: HCT-116; assay: Growth inhibition of human HCT116 cells after 48 hrs; type: functional; conditions: HCT-116, 48 h
[6] = test system: T47D; assay: Growth inhibition of human T47D cells after 48 hrs; type: functional
[7] = test system: SNU-398; assay: Growth inhibition of human SNU398 cells after 48 hrs; type: functional; conditions: SNU-398, 48 h
[8] = test system: HCT-116; assay: Cell cycle arrest in human HCT116 cells assessed as accumulation at subG1 phase at 2 uM after 24 hrs by flow cytometry; type: functional
[9] = test system: HCT-116; assay: Cell cycle arrest in human HCT116 cells assessed as accumulation at S phase at 2 uM after 24 hrs by flow cytometry; type: functional
[10] = test system: HCT-116; assay: Cell cycle arrest in human HCT116 cells assessed as accumulation at G2/M phase at 2 uM after 48 hrs by flow cytometry; type: functional
[11] = Solubility in buffer solution containing ethanol:Cremophor:D5W of 12.5:12.5:75; type: physicochemical
[12] = test system: HCT-116; assay: Cell cycle arrest in human HCT116 cells assessed as accumulation at S phase at 2 uM after 48 hrs by flow cytometry; type: functional
[13] = test system: HCT-116; assay: Cell cycle arrest in human HCT116 cells assessed as accumulation at G1 phase at 2 uM after 48 hrs by flow cytometry; type: functional
[14] = test system: HCT-116; assay: Cell cycle arrest in human HCT116 cells assessed as accumulation at G1 phase at 2 uM after 24 hrs by flow cytometry; type: functional
[15] = test system: HCT-116; assay: Cell cycle arrest in human HCT116 cells assessed as accumulation at G2/M phase at 2 uM after 24 hrs by flow cytometry; type: functional
[16] = test system: HCT-116; assay: Cell cycle arrest in human HCT116 cells assessed as accumulation at subG1 phase at 2 uM after 48 hrs by flow cytometry; type: functional

O=C(Nc1cccnc1)c1cccc2c1C(=O)c1ccccc1-2
EC50 [1]: > 10000 nM
EC50 [2]: > 10000 nM
EC50 [3]: > 10000 nM

CN(C(=O)c1cccc2c1C(=O)c1ccccc1-2)c1ccccc1-n1cccn1
EC50 [1]: > 10000 nM
EC50 [2]: > 10000 nM
EC50 [3]: > 10000 nM

COc1cc2c(c(OC)c1OC)-c1ccc(OC)c(=O)cc1[C@@H](NC(C)=O)CC2 [COLCHICINE]
IC50 ([4]; read-out: IC50): 500 nM

Cc1ccc(NC(=O)c2cccc3c2C(=O)c2ccccc2-3)cc1
EC50 [1]: > 10000 nM
EC50 [2]: > 10000 nM
EC50 [3]: 4600 nM

COC(=O)c1ccccc1NC(=O)c1cccc2c1C(=O)c1ccccc1-2
GI50 [5]: 480 nM
EC50 [1]: 520 nM
GI50 [6]: 180 nM
EC50 [2]: 340 nM
EC50 [3]: 2400 nM
GI50 [7]: 310 nM

CN(C)Cc1ccccc1NC(=O)c1cccc2c1C(=O)c1ccccc1-2
EC50 [1]: 940 nM
EC50 [2]: 710 nM
EC50 [3]: 1400 nM

O=C(Nc1ccccc1-n1cccn1)c1cccc2c1C(=O)c1ccccc1-2
Activity [8]: Active
GI50 [5]: 1100 nM
Activity [9]: Active
IC50 [4]: Not Active
Activity [10]: Active
solubility [11]: 6100 µg/mL (≈ 16.7 mM)
EC50 [1]: 1300 nM
Activity [12]: Active
GI50 [6]: 160 nM
Activity [13]: Active
Activity [14]: Active
Activity [15]: Active
EC50 [2]: 1100 nM
EC50 [3]: 1400 nM
GI50 [7]: 780 nM
Activity [16]: Active

CN1CCN(Cc2ccccc2NC(=O)c2cccc3c2C(=O)c2ccccc2-3)CC1
EC50 [1]: > 10000 nM
EC50 [2]: > 10000 nM
EC50 [3]: > 10000 nM

CN(C)c1ccccc1NC(=O)c1cccc2c1C(=O)c1ccccc1-2
solubility [11]: 6100 µg/mL (≈ 17.8 mM)
EC50 [1]: 1200 nM
EC50 [2]: 830 nM
EC50 [3]: 980 nM

Cc1cccc(NC(=O)c2cccc3c2C(=O)c2ccccc2-3)c1
EC50 [1]: > 10000 nM
EC50 [2]: > 10000 nM
EC50 [3]: > 10000 nM

O=C(Nc1ccccn1)c1cccc2c1C(=O)c1ccccc1-2
EC50 [1]: > 10000 nM
EC50 [2]: > 10000 nM
EC50 [3]: > 10000 nM

Cc1ccccc1C(=O)Nc1cccc2c1C(=O)c1ccccc1-2
EC50 [1]: 2200 nM
EC50 [2]: 1300 nM
EC50 [3]: 2100 nM

O=C(Nc1ccccc1N1CCOCC1)c1cccc2c1C(=O)c1ccccc1-2
EC50 [1]: 5200 nM
EC50 [2]: 3900 nM
EC50 [3]: 5300 nM

O=C(Nc1ccccc1O)c1cccc2c1C(=O)c1ccccc1-2
EC50 [1]: > 10000 nM
EC50 [2]: > 10000 nM
EC50 [3]: > 10000 nM

O=C(Nc1ccccc1-c1nnn[nH]1)c1cccc2c1C(=O)c1ccccc1-2
EC50 [1]: > 10000 nM
EC50 [2]: > 10000 nM
EC50 [3]: > 10000 nM

O=C(Nc1ccccc1-n1ccnc1)c1cccc2c1C(=O)c1ccccc1-2
EC50 [1]: > 10000 nM
EC50 [2]: > 10000 nM
EC50 [3]: > 10000 nM

CC[C@]1(O)C[C@@H]2CN(CCc3c([nH]c4ccccc34)[C@@](C(=O)OC)(c3cc4c(cc3OC)N(C)[C@H]3[C@@](O)(C(=O)OC)[C@H](OC(C)=O)[C@]5(CC)C=CCN6CC[C@]43[C@@H]65)C2)C1 [VINBLASTINE]
IC50 ([4]; read-out: IC50): 500 nM

O=C(Nc1ccccc1F)c1cccc2c1C(=O)c1ccccc1-2
EC50 [1]: > 10000 nM
EC50 [2]: > 10000 nM
EC50 [3]: 1800 nM

O=C(Nc1ccccc1OCF)c1cccc2c1C(=O)c1ccccc1-2
EC50 [1]: 2300 nM
EC50 [2]: 1500 nM
EC50 [3]: 480 nM

O=C(Nc1ccccc1)c1cccc2c1C(=O)c1ccccc1-2
EC50 [1]: > 10000 nM
EC50 [2]: > 10000 nM
EC50 [3]: 4400 nM

O=C(Nc1ccccc1-n1cccc1)c1cccc2c1C(=O)c1ccccc1-2
EC50 [1]: 6300 nM
EC50 [2]: 5500 nM
EC50 [3]: 5900 nM

CCOc1ccccc1NC(=O)c1cccc2c1C(=O)c1ccccc1-2
GI50 [5]: 400 nM
EC50 [1]: 1600 nM
GI50 [6]: 450 nM
EC50 [2]: 960 nM
EC50 [3]: 2900 nM
GI50 [7]: 270 nM

O=C(Nc1ccccc1[N+](=O)[O-])c1cccc2c1C(=O)c1ccccc1-2
EC50 [1]: 5500 nM
EC50 [2]: 2600 nM
EC50 [3]: 2500 nM

CC1CCCCC1NC(=O)c1cccc2c1C(=O)c1ccccc1-2 (stereo not given)
EC50 [1]: > 10000 nM
EC50 [2]: > 10000 nM
EC50 [3]: > 10000 nM

O=C(Nc1nccs1)c1cccc2c1C(=O)c1ccccc1-2
EC50 [1]: > 10000 nM
EC50 [2]: > 10000 nM
EC50 [3]: > 10000 nM

O=C(NCc1ccccc1Cl)c1cccc2c1C(=O)c1ccccc1-2
EC50 [1]: > 10000 nM
EC50 [2]: > 10000 nM
EC50 [3]: > 10000 nM

[N-]=[N+]=Nc1ccccc1NC(=O)c1cccc2c1C(=O)c1ccccc1-2
EC50 [1]: 3600 nM
EC50 [2]: 4400 nM
EC50 [3]: 3500 nM

O=C(Nc1ccccc1-c1ccccc1)c1cccc2c1C(=O)c1ccccc1-2
GI50 [5]: 580 nM
EC50 [1]: 1800 nM
GI50 [6]: 210 nM
EC50 [2]: 1700 nM
EC50 [3]: 1700 nM
GI50 [7]: 350 nM

Nc1ccccc1NC(=O)c1cccc2c1C(=O)c1ccccc1-2
EC50 [1]: > 10000 nM
EC50 [2]: > 10000 nM
EC50 [3]: > 10000 nM

COc1ccccc1NC(=O)c1cccc2c1C(=O)c1ccccc1-2
EC50 [1]: 7500 nM
EC50 [2]: 4900 nM
EC50 [3]: 620 nM

O=C(Nc1ccccc1Br)c1cccc2c1C(=O)c1ccccc1-2
EC50 [1]: 2700 nM
EC50 [2]: 2200 nM
EC50 [3]: 2300 nM

Cc1ccncc1NC(=O)c1cccc2c1C(=O)c1ccccc1-2
EC50 [1]: > 10000 nM
EC50 [2]: > 10000 nM
EC50 [3]: > 10000 nM

Cc1cccnc1NC(=O)c1cccc2c1C(=O)c1ccccc1-2
EC50 [1]: > 10000 nM
EC50 [2]: > 10000 nM
EC50 [3]: > 10000 nM

COc1ccccc1CNC(=O)c1cccc2c1C(=O)c1ccccc1-2
EC50 [1]: > 10000 nM
EC50 [2]: > 10000 nM
EC50 [3]: > 10000 nM

Cc1ccccc1NC(=O)c1cccc2c1C(=O)c1ccccc1-2
Activity [8]: 8%
GI50 [5]: 360 nM
Activity [9]: 10%
IC50 [4]: Not Active
Activity [10]: 16%
EC50 [1]: 1100 nM
Activity [12]: 11%
GI50 [6]: 180 nM
Activity [13]: 29%
Activity [14]: 32%
Activity [15]: 48%
EC50 [2]: 640 nM
EC50 [3]: 980 nM
GI50 [7]: 300 nM
Activity [16]: 41%

COc1ccc(NC(=O)c2cccc3c2C(=O)c2ccccc2-3)cc1
EC50 [1]: > 10000 nM
EC50 [2]: > 10000 nM
EC50 [3]: 3700 nM

N#Cc1ccccc1NC(=O)c1cccc2c1C(=O)c1ccccc1-2
EC50 [1]: > 10000 nM
EC50 [2]: > 10000 nM
EC50 [3]: > 10000 nM

Cc1cccc(C)c1NC(=O)c1cccc2c1C(=O)c1ccccc1-2
EC50 [1]: > 10000 nM
EC50 [2]: > 10000 nM
EC50 [3]: > 10000 nM

O=C(Nc1ccccc1N1CCCCC1)c1cccc2c1C(=O)c1ccccc1-2
EC50 [1]: 2600 nM
EC50 [2]: 2100 nM
EC50 [3]: 2800 nM

O=C(Nc1ccccc1CBr)c1cccc2c1C(=O)c1ccccc1-2
EC50 [1]: 10700 nM
EC50 [2]: 7200 nM
EC50 [3]: 4700 nM

O=C(Nc1ccccc1Cl)c1cccc2c1C(=O)c1ccccc1-2
GI50 [5]: 540 nM
EC50 [1]: 560 nM
GI50 [6]: 230 nM
EC50 [2]: 410 nM
EC50 [3]: 470 nM
GI50 [7]: 530 nM

Cc1ccccc1N(C)C(=O)c1cccc2c1C(=O)c1ccccc1-2
EC50 [1]: > 10000 nM
EC50 [2]: > 10000 nM
EC50 [3]: > 10000 nM
